{"source": "paper PMC11491004", "about": "“CHF6523 data suggest that the phosphoinositide 3-kinase delta isoform is not a suitable target for the management of COPD” (Respiratory Research, 2024)", "key": {"[1]": {"experiment": "CHF6523 plasma pharmacokinetics in patients with COPD", "type": "in vivo, human", "conditions": "for AUC0–30 min / AUC0–12 h / Cmax: 2 mg twice daily inhaled", "description": "(§1) All assessment timings were based on the morning dose. Pre-dose on Days 1 and 28 of each treatment period, blood samples were taken for pharmacokinetic analyses, followed by forced oscillation (including slow vital capacity manoeuvres for inspiratory capacity [IC] and vital capacity [VC]), spirometry (forced expiratory volume in 1 s [FEV1] and forced vital capacity [FVC]), and the COPD Assessment Test (CAT). Blood samples were also taken up to 12 h post-dose on Days 1 and 28 for pharmacokinetic analyses, with blood samples for biomarker assessment pre-dose on Day 1 and 2 h post-dose on Day 28, and spirometry pre-dose on Days 20 and 24. Sputum was induced prior to each treatment period for baseline determination of biomarkers, and post-dose on Day 20 for collection of phosphatidylinositol (3,4,5)-trisphosphate (PIP3), and on Days 24 and 28 for collection of biomarkers.\nPharmacokinetic assessments were performed under fasting conditions. On days when pharmacokinetic samples were taken, study drug was administered in the morning at the clinical site after a fast of ≥ 10 h (water was allowed), with food or fluid intake not allowed until 1 h post-dose, with the exception of 100 mL of water if the patient coughed as a result of inhalation. Starting from 1 h post-dose and for the following 6 h, patients drank ≥ 240 mL of water every 2 h, with breakfast and lunch served approximately 3 and 5 h after morning study drug, and, on Day 1, dinner at least 2 h before or 1 h after evening drug administration. No intake of alcohol, grapefruit, or xanthine/caffeine containing beverages or food was allowed from 48 h prior to each intake of study medication and until the last visit procedure, with strenuous exercise prohibited for 24 h before any spirometry measurement.\nBlood samples of 2 mL were collected in K2-EDTA tubes at pre-dose and at 10, 15, 30, and 45 min and 1, 1½, 2, 3, 4, 6, 8 and 12 h post-dose on Days 1 and 28, and pre-dose on Days 20 and 24. Collected samples were centrifuged within 1 h after blood in a refrigerated centrifuge (at about +4°C) at about 2000 x g for 10 min. The plasma obtained was transferred into two polypropylene tubes (at least 500 μL into the first, and the remaining volume into the second), then stored at or below –80°C, at the clinical centre. The tubes were then transferred (frozen) to a central laboratory, and stored at –80°C until submitted for analysis with a validated liquid chromatography with tandem mass spectrometry (LC/MS-MS) method. Two validated methods were used to cover the range of possible concentrations. The first one, the so-called low-range method, measured CHF6523 over the calibration range 0.02–1.00 ng/mL. The second, the high-range method, measured CHF6523 over the calibration range 1.00–50.0 ng/mL. Overall, the lower limit of quantification in this study (LLoQ) was of 0.02 ng/mL."}, "[2]": {"experiment": "Spirometry (pre-dose FEV1 and FVC)", "type": "in vivo, human", "description": "as §1\n(§2) Fold-change from baseline in cell counts, target biomarkers in sputum and blood, and PIP3 were log-transformed and analysed using an analysis of covariance (ANCOVA) model, with treatment, patient, and period as fixed effects, and baseline value as covariate. Changes from baseline in spirometry, forced oscillation and CAT endpoints were analysed using a similar ANCOVA model, but without log transformation. Rescue medication data were analysed using an analysis of variance model, including treatment, period and patient as fixed effects. Other data, including the proportion of days on which patients coughed and the cough VAS results, are presented descriptively only. Further details, including the transcriptomics, mass-spectrometry and Olink proteomics, bioinformatics and multi-omic data integration are in the supplement."}, "in-vivo guinea pig model": {"tested_on": "in-vivo guinea pig model", "experiment": "In-vivo guinea pig cough model"}, "[3]": {"conditions": "in vivo", "quoted_text": "Safety and tolerability were evaluated throughout the study in terms of the occurrence of adverse events, blood chemistry, haematology and urinalysis, vital signs, and 12-lead electrocardiograms. […] Throughout the study, patients were permitted to use salbutamol as rescue medication, but not within 6 h prior to any spirometry assessment – any rescue medication intake was also captured in the daily diary.\nThe safety set, used in the analysis of all safety variables, was all randomised patients who received at least one dose of study drug. […] Given the cross-over design, the inclusion of patients in the analysis sets was defined on a per-period basis."}, "PI3Kδ": {"molecular_target": "PI3Kδ (Homo sapiens, UniProt O00329)", "sequence (O00329 whole entry)": "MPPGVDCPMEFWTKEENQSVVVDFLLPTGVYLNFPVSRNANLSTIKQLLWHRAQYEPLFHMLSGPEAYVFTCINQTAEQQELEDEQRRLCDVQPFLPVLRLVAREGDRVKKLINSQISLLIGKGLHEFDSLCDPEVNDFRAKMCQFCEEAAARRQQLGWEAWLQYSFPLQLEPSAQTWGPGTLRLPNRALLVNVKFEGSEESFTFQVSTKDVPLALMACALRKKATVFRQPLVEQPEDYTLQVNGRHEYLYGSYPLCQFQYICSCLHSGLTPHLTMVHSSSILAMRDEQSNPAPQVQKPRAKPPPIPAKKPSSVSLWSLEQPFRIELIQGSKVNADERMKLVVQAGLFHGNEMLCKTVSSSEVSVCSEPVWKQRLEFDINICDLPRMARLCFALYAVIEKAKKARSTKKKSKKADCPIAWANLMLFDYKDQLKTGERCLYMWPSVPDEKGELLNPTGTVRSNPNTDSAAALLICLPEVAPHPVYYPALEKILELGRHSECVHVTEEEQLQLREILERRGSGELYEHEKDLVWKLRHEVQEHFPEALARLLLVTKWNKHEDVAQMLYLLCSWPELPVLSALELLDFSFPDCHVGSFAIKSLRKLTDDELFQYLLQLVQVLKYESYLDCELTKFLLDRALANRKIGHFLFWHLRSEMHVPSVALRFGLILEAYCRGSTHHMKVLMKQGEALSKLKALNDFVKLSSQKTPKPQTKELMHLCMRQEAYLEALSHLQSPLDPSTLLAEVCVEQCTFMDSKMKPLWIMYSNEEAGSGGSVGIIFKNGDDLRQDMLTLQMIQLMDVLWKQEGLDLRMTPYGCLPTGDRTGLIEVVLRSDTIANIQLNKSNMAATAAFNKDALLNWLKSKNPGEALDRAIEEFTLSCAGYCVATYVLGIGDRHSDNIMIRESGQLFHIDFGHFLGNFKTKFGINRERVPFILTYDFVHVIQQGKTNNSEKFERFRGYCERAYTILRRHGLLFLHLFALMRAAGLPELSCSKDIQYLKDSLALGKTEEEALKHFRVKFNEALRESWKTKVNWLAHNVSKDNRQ", "sequence (P27986 whole entry partner)": "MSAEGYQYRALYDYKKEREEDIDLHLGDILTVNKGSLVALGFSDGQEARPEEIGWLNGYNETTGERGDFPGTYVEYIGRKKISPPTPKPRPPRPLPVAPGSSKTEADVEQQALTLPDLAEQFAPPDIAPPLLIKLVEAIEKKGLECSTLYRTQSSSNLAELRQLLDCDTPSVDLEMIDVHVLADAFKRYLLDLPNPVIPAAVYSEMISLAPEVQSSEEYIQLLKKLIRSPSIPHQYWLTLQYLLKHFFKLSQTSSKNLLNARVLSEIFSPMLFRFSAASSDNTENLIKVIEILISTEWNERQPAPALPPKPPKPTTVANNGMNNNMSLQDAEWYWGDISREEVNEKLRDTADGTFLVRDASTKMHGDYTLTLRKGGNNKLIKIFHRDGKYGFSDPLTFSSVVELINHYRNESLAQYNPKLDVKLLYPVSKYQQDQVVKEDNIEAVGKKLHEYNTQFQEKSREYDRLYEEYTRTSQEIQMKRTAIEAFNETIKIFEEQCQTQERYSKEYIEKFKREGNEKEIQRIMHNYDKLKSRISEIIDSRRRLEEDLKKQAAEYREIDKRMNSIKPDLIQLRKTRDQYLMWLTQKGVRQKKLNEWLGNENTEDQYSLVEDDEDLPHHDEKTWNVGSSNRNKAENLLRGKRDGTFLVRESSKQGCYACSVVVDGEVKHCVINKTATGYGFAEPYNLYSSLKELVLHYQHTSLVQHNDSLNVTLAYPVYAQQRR", "experiment": "Target engagement: PIP3 in induced sputum", "type": "in vivo", "parameters": "from tissue; host or cells: induced sputum of COPD patients (in vivo dosing by inhalation)", "description": "as §1, §2"}}}
{"smiles": "C[C@@H](c1oc(=O)c2ccccc2c1-c1cccc(CN2CCN(C)CC2)c1)n1nc(-c2cncc(O)c2)c2c(N)ncnc21", "note": "[CHF6523]", "values": [{"measurement": "Time of peak of mean plasma concentration", "setting": "[1]; Day 1", "value": 15, "unit": "min"}, {"measurement": "median tmax", "setting": "[1]; Day 1", "value": 15, "unit": "min"}, {"measurement": "median tmax", "setting": "[1]; Day 28", "value": 11, "unit": "min"}, {"measurement": "Time of peak of mean plasma concentration", "setting": "[1]; Day 28 (first post-dose timepoint)", "value": 10, "unit": "min"}, {"measurement": "AUC0–30 min", "setting": "[1]; plasma, Day 1, mean (SD)", "value": "3.28 (1.64) ng.h/mL"}, {"measurement": "AUC0–12 h", "setting": "[1]; plasma, Day 1, mean (SD)", "value": "8.10 (4.11) ng.h/mL"}, {"measurement": "Cmax", "setting": "[1]; plasma, Day 1, mean (SD)", "value": "9.10 (4.42) ng/mL"}, {"measurement": "tmax", "setting": "[1]; plasma, Day 1, median (range)", "value": "0.25 (0.15–2.00) h"}, {"measurement": "Ctrough", "setting": "[1]; plasma, Day 20 pre-dose, mean (SD)", "value": "0.10 (0.05) ng/mL"}, {"measurement": "Ctrough", "setting": "[1]; plasma, Day 24 pre-dose, mean (SD)", "value": "0.09 (0.06) ng/mL"}, {"measurement": "AUC0–30 min", "setting": "[1]; plasma, Day 28, mean (SD)", "value": "4.21 (2.05) ng.h/mL"}, {"measurement": "AUC0–12 h", "setting": "[1]; plasma, Day 28, mean (SD)", "value": "10.50 (5.32) ng.h/mL"}, {"measurement": "Cmax", "setting": "[1]; plasma, Day 28, mean (SD)", "value": "11.70 (5.54) ng/mL"}, {"measurement": "CL/Fss (apparent total body clearance at steady state)", "setting": "[1]; plasma, Day 28, dose/AUC 0-12 h, mean (SD)", "value": "239 (119) L/h"}, {"measurement": "Cav", "setting": "[1]; plasma, Day 28, mean (SD)", "value": "0.88 (0.45) ng/mL"}, {"measurement": "Cmin", "setting": "[1]; plasma, Day 28, mean (SD)", "value": "0.09 (0.03) ng/mL"}, {"measurement": "tmax", "setting": "[1]; plasma, Day 28, median (range)", "value": "0.18 (0.15–0.27) h"}, {"measurement": "tmin", "setting": "[1]; plasma, Day 28, median (range)", "value": "11.92 (8.13–12.17) h"}, {"measurement": "Ctrough", "setting": "[1]; plasma, Day 28 pre-dose, mean (SD)", "value": "0.09 (0.06) ng/mL"}, {"measurement": "Change from baseline in pre-dose FEV1: CHF6523–placebo difference (95% CI)", "setting": "[2]; Day 20", "value": "−79 (−149, −9) mL"}, {"measurement": "Change from baseline in pre-dose FVC: CHF6523–placebo difference (95% CI)", "setting": "[2]; Day 20", "value": "−38 (−191, 116) mL"}, {"measurement": "Change from baseline in pre-dose FEV1: CHF6523–placebo difference (95% CI)", "setting": "[2]; Day 24", "value": "−79 (−141, −17) mL"}, {"measurement": "Change from baseline in pre-dose FVC: CHF6523–placebo difference (95% CI)", "setting": "[2]; Day 24", "value": "−25 (−170, 120) mL"}, {"measurement": "Change from baseline in pre-dose FEV1: CHF6523–placebo difference (95% CI)", "setting": "[2]; Day 28", "value": "−146 (−242, −50) mL"}, {"measurement": "Coughing in guinea pig, formulation with alternative salts", "setting": "in-vivo guinea pig model; formulation changed to use alternative salts", "value": "ineffective in influencing cough"}, {"measurement": "Coughing in guinea pig", "setting": "in-vivo guinea pig model; in-vivo guinea pig model, salt form used in the study", "value": "trigger coughing"}, {"measurement": "Adverse events leading to study discontinuation", "setting": "[3]", "value": "6 (14.3%) Patients (%)"}, {"measurement": "Adverse events leading to study discontinuation: Cough", "setting": "[3]", "value": "5 (11.9%) Patients (%)"}, {"measurement": "Adverse events: Abnormal product taste", "setting": "[3]", "value": "14 (33.3%) Patients (%)"}, {"measurement": "Adverse events: COPD exacerbation", "setting": "[3]", "value": "4 (9.5%) Patients (%)"}, {"measurement": "Adverse events: Chest discomfort", "setting": "[3]", "value": "9 (21.4%) Patients (%)"}, {"measurement": "Adverse events: Dyspnoea", "setting": "[3]", "value": "9 (21.4%) Patients (%)"}, {"measurement": "Adverse events: Headache", "setting": "[3]", "value": "5 (11.9%) Patients (%)"}, {"measurement": "Adverse events: Increased sputum", "setting": "[3]", "value": "5 (11.9%) Patients (%)"}, {"measurement": "CHF6523–placebo differences in the other safety evaluations", "setting": "[3]", "value": "no clinically relevant"}, {"measurement": "Serious adverse events", "setting": "[3]", "value": "2 (4.8%) Patients (%)"}, {"measurement": "Serious treatment-related adverse events", "setting": "[3]", "value": "0 Patients (%)"}, {"measurement": "Severe adverse events", "setting": "[3]", "value": "11 (26.2%) Patients (%)"}, {"measurement": "Severe adverse events: Cough", "setting": "[3]", "value": "7 (16.7%) Patients (%)"}, {"measurement": "Treatment-related adverse events", "setting": "[3]", "value": "40 (95.2%) Patients (%)"}, {"measurement": "Treatment-related adverse events: Chest discomfort", "setting": "[3]", "value": "9 (21.4%) Patients (%)"}, {"measurement": "Treatment-related adverse events: Cough", "setting": "[3]", "value": "40 (95.2%) Patients (%)"}, {"measurement": "Treatment-related adverse events: Dyspnoea", "setting": "[3]", "value": "9 (21.4%) Patients (%)"}, {"measurement": "Treatment-related adverse events: Headache", "setting": "[3]", "value": "3 (7.1%) Patients (%)"}, {"measurement": "Treatment-related adverse events: Increased sputum", "setting": "[3]", "value": "5 (11.9%) Patients (%)"}, {"measurement": "Treatment-related adverse events: Product taste abnormal", "setting": "[3]", "value": "14 (33.3%) Patients (%)"}, {"measurement": "Sputum PIP3 adjusted geometric mean fold change from baseline [95% CI]", "setting": "PI3Kδ; Day 20", "value": "0.703 [95% CI 0.606, 0.814]"}, {"measurement": "Decrease from baseline in sputum PIP3 levels", "setting": "PI3Kδ; Day 20, 2 mg twice daily inhaled", "value": 29.7, "unit": "%"}, {"measurement": "Sputum PIP3 adjusted ratio CHF6523 vs placebo [95% CI]", "setting": "PI3Kδ; Day 20, p = 0.001", "value": "0.705 [0.580, 0.856]"}, {"measurement": "Sputum PIP3 difference between groups (reduction vs. placebo)", "setting": "PI3Kδ; Day 20, p = 0.001", "value": 29.5, "unit": "%"}]}
